Calls of active or inactive are those of the source. The calls are words filed in the database; no cut-off is given here.
Tests used:
[1] = Plasma protein binding in rat at 2 uM by LC-MS/MS analysis; assay type: ADME, cell-free; conditions: read-out: PPB
[2] = Antitumor activity against human PK-59 cells xenografted in female Balb/c nude mouse model assessed as tumor growth inhibition at 3 mg/kg, iv QW measured after 28 days relative to control; assay type: functional; conditions: PK-59, 672 h, time 28 day, read-out: TGI
[3] = tested on: HCC1588; assay: Antiproliferative activity against human HCC1588 cells harbouring KRAS G12D mutant assessed as inhibition of cell growth measured after 72 hrs by Cell titer glo method; assay type: functional, cell-based
[4] = Antitumor activity against human Panc 04.03 cells harbouring KRAS G12D mutant xenografted in female Balb/c nude mouse model assessed as tumor regression at 1 to 10 mg/kg, iv QW administered weekly and measured after 28 days relative to control; assay type: functional; conditions: dose 1-10 mg/kg, time 28 day
[5] = tested on: Protein cereblon/GTPase KRas (Homo sapiens), P01116+Q96SW2 [G12D]; assay: In vivo PROTAC activity at CRBN/KRAS G12D mutant in male Balb/c nude mouse xenografted with human GP2d cells assessed as degradation of KRAS G12D mutant at 10 mg/kg, iv measured after 7 days relative to control; assay type: functional, organism-based; conditions: time 7.0 day
[6] = Clearance in male Sprague-Dawley rat at 1 mg/kg, iv measured up to 24 hrs by LC-MS/MS analysis; assay type: ADME, organism-based; conditions: in vivo
[7] = tested on: ASPC1; assay: Effect on CK1alpha level in human ASPC1 cells at 10 nM measured after 8 hrs by Western blot analysis; assay type: functional, cell-based
[8] = target: Protein cereblon/Eukaryotic peptide chain release factor GTP-binding subunit ERF3A (Homo sapiens) (UniProt Q96SW2+P15170); assay: PROTAC activity at CRBN/GSPT1 in human ASPC1 cells assessed as induction of GSPT1 degradation at 10 to 1000 nM measured after 24 hrs by immunoblot analysis; assay type: cell-based; conditions: dose 10-1000 nM
[9] = tested on: Protein cereblon/GTPase KRas (Homo sapiens), P01116+Q96SW2 [G12D]; assay: In vivo PROTAC activity at CRBN/KRAS G12D mutant in male Balb/c nude mouse xenografted with human PK-59 cells assessed as increase in cleaved caspase 7 level at 10 mg/kg, iv measured after 24 hrs relative to control; assay type: functional, organism-based
[10] = Drug concentration in male Balb/c nude mouse tumor xenografted with human GP2d cells at 10 mg/kg, iv administered as single dose measured after 7 days by LC-MS/MS analysis; assay type: ADME, organism-based, Neoplasm; conditions: time 7 day, read-out: Ct
[11] = Half life in male Sprague-Dawley rat at 1 mg/kg, iv measured up to 24 hrs by LC-MS/MS analysis; assay type: ADME, organism-based; conditions: in vivo
[12] = tested on: Protein cereblon/GTPase KRas (Homo sapiens), P01116+Q96SW2 [G12D]; assay: In vivo PROTAC activity at CRBN/KRAS G12D mutant in male Balb/c nude mouse xenografted with human PK-59 cells assessed as increase in cleaved caspase 7 level at 10 mg/kg, iv measured up to 168 hrs; assay type: functional, organism-based
[13] = Drug concentration in male ICR mouse plasma at 10 mg/kg, iv measured after 0.25 hrs by LC-MS/MS analysis; assay type: ADME, organism-based
[14] = Toxicity in female Balb/c nude mouse xenografted with human GP2d cells assessed as change in body weight at 1 to 10 mg/kg, iv Q2W measured after 28 days; assay type: organism-based; conditions: in vivo, 672 h, dose 1-10 mg/kg, time 28 day
[15] = tested on: ASPC1; assay: Potency index , ratio of MRTX1133 IC50 to test compound IC50 for antiproliferative activity against human ASPC1 cells assessed as inhibition of cell growth measured after 72 hrs by Cell titer glo method; assay type: functional
[16] = Stability in human plasma assessed as half life at 1 uM measured up to 120 mins by LC-MS/MS analysis; assay type: ADME, cell-free
[17] = Stability in dog plasma assessed as half life at 1 uM measured up to 120 mins by LC-MS/MS analysis; assay type: ADME, cell-free, Canis lupus familiaris
[18] = Stability in rat plasma assessed as half life at 1 uM measured up to 120 mins by LC-MS/MS analysis; assay type: ADME, cell-free
[19] = tested on: Protein cereblon/GTPase KRas (Homo sapiens), P01116+Q96SW2 [G12D]; assay: In vivo PROTAC activity at CRBN/KRAS G12D mutant in male Balb/c nude mouse xenografted with human GP2d cells assessed as inhibition of ERK phosphorylation level at 10 mg/kg, iv measured after 7 days; assay type: functional, organism-based; conditions: time 7.0 day
[20] = Metabolic stability in mouse liver microsomes assessed as intrinsic clearance at 1 uM preincubated for 3 mins with NADPH and measured up to 60 mins by LC-MS/MS analysis; assay type: ADME, Microsome; conditions: time < 63 min, read-out: CLH
[21] = AUC (0 to t) in male Beagle dog at 1 mg/kg, iv measured up to 24 hrs by LC-MS/MS analysis; assay type: ADME, organism-based, Canis lupus familiaris; conditions: in vivo
[22] = target: Cytochrome P450 2B6 (Homo sapiens, UniProt P20813); assay: Inhibition of CYP2B6 in human liver microsomes using bupropion as substrate at 10 uM incubated for 20 mins in presence of NADPH by LC/MS analysis; assay type: ADME, Microsome
[23] = target: Cytochrome P450 2C19 (Homo sapiens, UniProt P33261); assay: Inhibition of CYP2C19 in human liver microsomes using S-mephenytoin as substrate at 10 uM incubated for 15 mins in presence of NADPH by LC/MS analysis; assay type: ADME, Microsome; conditions: 0.25 h
[24] = Metabolic stability in human liver microsomes assessed as half life at 1 uM preincubated for 3 mins with NADPH and measured up to 60 mins by LC-MS/MS analysis; assay type: ADME, Microsome; conditions: time < 63 min
[25] = Half life in male Beagle dog at 1 mg/kg, iv measured up to 24 hrs by LC-MS/MS analysis; assay type: ADME, organism-based, Canis lupus familiaris; conditions: in vivo
[26] = Clearance in male cynomolgus monkey at 1 mg/kg, iv measured up to 24 hrs by LC-MS/MS analysis; assay type: ADME, organism-based, Macaca fascicularis; conditions: in vivo
[27] = Metabolic stability in dog liver microsomes assessed as intrinsic clearance at 1 uM preincubated for 3 mins with NADPH and measured up to 60 mins by LC-MS/MS analysis; assay type: ADME, Canis lupus familiaris, Microsome; conditions: time < 63 min, read-out: CLH
[28] = tested on: Protein cereblon/GTPase KRas (Homo sapiens), P01116+Q96SW2 [G12D]; assay: PROTAC activity at CRBN/KRAS G12D mutant in human ASPC1 cells assessed as induction of KRAS G12D mutant degradation at 5 nM preincubated with MG132 followed by compound addition and measured after 24 hrs by Western blot analysis; assay type: cell-based
[29] = target: GTPase KRas (Homo sapiens, UniProt P01116, G12D); assay: Binding affinity to 6 His-tagged GDP-loaded human KRAS G12D mutant assessed as GDP-GTP exchange preincubated for 30 mins followed by GTP addition for 30 mins by HTRF method
[30] = tested on: ASPC1; assay: Antitumor activity against human ASPC1 cells harbouring KRAS G12D mutant xenografted in female Balb/c nude mouse model assessed as tumor regression at 1 to 20 mg/kg, iv QW administered weekly and measured after 28 days; assay type: functional, organism-based; conditions: dose 1-20 mg/kg, time 28.0 day
[31] = Metabolic stability in dog liver microsomes assessed as half life at 1 uM preincubated for 3 mins with NADPH and measured up to 60 mins by LC-MS/MS analysis; assay type: ADME, Canis lupus familiaris, Microsome; conditions: time < 63 min

Chain of Protein cereblon/GTPase KRas (Homo sapiens), P01116+Q96SW2 [G12D] (P01116 whole entry G12D): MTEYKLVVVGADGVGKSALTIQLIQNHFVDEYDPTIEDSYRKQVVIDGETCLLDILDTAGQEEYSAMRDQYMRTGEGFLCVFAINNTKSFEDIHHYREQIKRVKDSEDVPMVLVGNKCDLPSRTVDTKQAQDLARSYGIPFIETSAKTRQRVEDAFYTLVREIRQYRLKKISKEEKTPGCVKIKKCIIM
Chain of Protein cereblon/GTPase KRas (Homo sapiens), P01116+Q96SW2 [G12D] (Q96SW2 whole entry partner): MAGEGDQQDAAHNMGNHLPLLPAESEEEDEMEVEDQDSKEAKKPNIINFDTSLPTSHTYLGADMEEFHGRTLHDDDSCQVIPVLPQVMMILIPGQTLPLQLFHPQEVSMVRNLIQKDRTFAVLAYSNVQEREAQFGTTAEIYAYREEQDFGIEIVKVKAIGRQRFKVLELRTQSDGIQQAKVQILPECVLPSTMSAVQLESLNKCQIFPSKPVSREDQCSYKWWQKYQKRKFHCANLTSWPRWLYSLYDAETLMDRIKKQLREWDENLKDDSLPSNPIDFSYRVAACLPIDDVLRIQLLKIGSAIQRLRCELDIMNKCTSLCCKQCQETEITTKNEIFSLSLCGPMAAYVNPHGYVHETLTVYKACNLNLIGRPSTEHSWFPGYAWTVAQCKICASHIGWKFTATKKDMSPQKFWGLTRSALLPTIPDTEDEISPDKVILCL
Chain of Cytochrome P450 2C19 (P33261 whole entry): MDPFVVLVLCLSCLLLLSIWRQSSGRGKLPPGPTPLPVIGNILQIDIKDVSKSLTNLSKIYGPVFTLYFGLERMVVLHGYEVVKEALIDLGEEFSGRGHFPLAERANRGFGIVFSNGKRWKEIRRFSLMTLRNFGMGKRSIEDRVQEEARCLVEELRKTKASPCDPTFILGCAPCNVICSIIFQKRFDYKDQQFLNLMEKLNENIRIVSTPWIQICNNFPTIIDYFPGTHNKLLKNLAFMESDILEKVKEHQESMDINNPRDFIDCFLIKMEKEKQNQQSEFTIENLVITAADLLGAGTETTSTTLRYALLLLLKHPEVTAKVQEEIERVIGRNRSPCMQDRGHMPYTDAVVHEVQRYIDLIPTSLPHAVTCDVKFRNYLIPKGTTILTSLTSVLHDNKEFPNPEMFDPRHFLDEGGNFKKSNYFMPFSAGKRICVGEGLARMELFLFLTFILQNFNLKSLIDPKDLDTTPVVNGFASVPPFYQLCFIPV
Chain of GTPase KRas (P01116 whole entry G12D): as the sequence (P01116 whole entry G12D) above
Chain of Protein cereblon/Eukaryotic peptide chain release factor GTP-binding subunit ERF3A (Homo sapiens) (P15170 whole entry, looked up): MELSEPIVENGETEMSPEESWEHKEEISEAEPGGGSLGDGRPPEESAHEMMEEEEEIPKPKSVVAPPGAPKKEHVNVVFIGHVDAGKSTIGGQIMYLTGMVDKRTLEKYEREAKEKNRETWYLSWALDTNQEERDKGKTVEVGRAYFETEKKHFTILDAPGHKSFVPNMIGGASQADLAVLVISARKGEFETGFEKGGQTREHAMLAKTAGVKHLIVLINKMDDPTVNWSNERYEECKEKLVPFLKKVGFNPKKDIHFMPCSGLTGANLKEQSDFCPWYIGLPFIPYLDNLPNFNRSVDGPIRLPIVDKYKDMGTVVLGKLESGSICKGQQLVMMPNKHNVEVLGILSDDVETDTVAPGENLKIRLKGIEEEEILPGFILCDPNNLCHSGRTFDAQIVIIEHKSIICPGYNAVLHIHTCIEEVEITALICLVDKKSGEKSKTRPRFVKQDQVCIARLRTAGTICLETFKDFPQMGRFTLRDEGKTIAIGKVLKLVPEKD
Chain of Protein cereblon/Eukaryotic peptide chain release factor GTP-binding subunit ERF3A (Homo sapiens) (Q96SW2 whole entry, looked up): as the sequence (Q96SW2 whole entry partner) above
Chain of Cytochrome P450 2B6 (P20813 whole entry): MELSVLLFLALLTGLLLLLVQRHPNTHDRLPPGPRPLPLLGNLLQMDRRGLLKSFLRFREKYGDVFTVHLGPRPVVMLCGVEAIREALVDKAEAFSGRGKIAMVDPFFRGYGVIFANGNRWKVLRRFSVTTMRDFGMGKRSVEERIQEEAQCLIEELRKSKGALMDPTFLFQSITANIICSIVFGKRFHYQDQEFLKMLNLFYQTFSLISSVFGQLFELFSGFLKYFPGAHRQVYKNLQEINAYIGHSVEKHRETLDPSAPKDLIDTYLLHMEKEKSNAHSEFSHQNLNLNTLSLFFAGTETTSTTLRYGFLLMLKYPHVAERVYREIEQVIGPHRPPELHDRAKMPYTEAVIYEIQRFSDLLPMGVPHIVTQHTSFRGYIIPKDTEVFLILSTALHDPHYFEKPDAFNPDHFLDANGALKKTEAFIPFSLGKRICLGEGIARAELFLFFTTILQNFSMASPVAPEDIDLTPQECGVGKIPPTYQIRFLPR

## C#Cc1c(F)ccc2cc(O)cc(-c3ncc4c(N5CC6CCC(C5)N6)nc(OCC5(CN6CCC7(CC6)CC(N6CCC(c8cc9c(cc8F)c(N8CCC(=O)NC8=O)nn9C)CC6)C7)CC5)nc4c3F)c12
[1]
  fraction unbound at 2 µM: < 0.05
[2]
  inhibition in vivo at 3 mg/kg: 42.9%
[3]
  Activity: Active; Compound Showed Stronger Antiproliferative Activity Compared To Mrtx1133
[4]
  Activity: >30%
[5]
  Activity: 95%
[6]
  clearance: 33 mL/min/kg
[7]
  Activity: inactive
[8]
  Activity: inactive
[9]
  Activity: > 100%
[10]
  concentration at 168 h: 840 ng/g
[11]
  half-life: 9.63 h
[12]
  Activity: Active
[13]
  concentration at 0.25 h: 903 ng/mL
[14]
  Activity: Non-toxic
[15]
  Ratio IC50: >10
[16]
  half-life at 1 µM: 165 h
[17]
  half-life at 1 µM: 7.22 h
[18]
  half-life at 1 µM: 12.8 h
[19]
  Activity: Active
[20]
  CLint scaled at 1 µM: 12.7 mL/min/kg
[21]
  AUC(0-t) at 24 h: 0.458 µM·h
[22]
  inhibition (INH): Not_active
[23]
  inhibition (INH): Not_active
[24]
  half-life at 1 µM: 2.57 h
[25]
  half-life: 15.6 h
[26]
  clearance: 19.5 mL/min/kg
[27]
  CLint scaled at 1 µM: 4.6 mL/min/kg
[28]
  Activity: inactive
[29]
  IC50: 6.34 nM
[30]
  Activity: Weak_effect
[31]
  half-life at 1 µM: 7.22 h

— ChEMBL document CHEMBL6177994 (J Med Chem, 2025)
